Laboratory results from patent US6372779B1, “Anti-inflammatory compounds” (Ortho Pharmaceutical Corporation, priority 1997, dated 2002).

The compounds below were run against T1, human glucocorticoid receptor (hGR) (Homo sapiens, UniProt P04150) (assay: human glucocorticoid receptor binding assay (displacement of 3H triamcinolone acetonide)). Conditions: 1 μM.
T1 construct: made in house; host or cells: Sf21 insect cells infected with baculovirus hGR, OR IM9 lymphoblast cell line (endogenous hGR)
T1 sequence (P04150 1-777): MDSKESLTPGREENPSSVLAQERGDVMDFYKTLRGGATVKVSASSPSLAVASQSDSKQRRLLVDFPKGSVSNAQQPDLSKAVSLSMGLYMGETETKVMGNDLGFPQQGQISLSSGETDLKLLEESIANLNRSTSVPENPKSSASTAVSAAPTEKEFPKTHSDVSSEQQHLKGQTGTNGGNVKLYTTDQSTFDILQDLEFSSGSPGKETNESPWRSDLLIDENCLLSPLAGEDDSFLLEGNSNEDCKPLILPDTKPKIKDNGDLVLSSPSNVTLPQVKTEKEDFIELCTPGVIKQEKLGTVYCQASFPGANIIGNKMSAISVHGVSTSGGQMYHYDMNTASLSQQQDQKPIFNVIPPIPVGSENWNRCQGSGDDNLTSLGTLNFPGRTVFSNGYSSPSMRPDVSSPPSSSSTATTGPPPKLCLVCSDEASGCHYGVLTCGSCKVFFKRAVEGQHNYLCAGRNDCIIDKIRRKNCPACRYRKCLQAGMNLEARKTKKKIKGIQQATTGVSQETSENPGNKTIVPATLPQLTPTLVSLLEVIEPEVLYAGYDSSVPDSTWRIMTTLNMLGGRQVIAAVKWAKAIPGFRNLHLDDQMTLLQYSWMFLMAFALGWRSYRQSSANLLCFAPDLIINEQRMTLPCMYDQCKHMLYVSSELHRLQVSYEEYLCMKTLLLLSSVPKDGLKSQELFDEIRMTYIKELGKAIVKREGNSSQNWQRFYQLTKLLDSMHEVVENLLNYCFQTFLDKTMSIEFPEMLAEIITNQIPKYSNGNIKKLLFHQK
Procedure: A human glucocorticoid receptor binding assay was carried out to determine the extent to which the compounds of this invention have the ability to bind to human glucocorticoid receptors. This binding ability may be indicative of the antiinflammatory activity of the compound. The test was carried out as follows.
Human glucocorticoid receptors were prepared from either insect cells (Sf21) infected with baculovirus hGR or from a lymphoblast cell line which expresses high levels of endogenous hGR (IM9). The receptor binding reactions, with or without test compounds, were set up in 96-well microtiter plates which were previously siliconized with SIGMACOTE™, a chlorinated organopolysiloxane in heptane. The binding components, 3(H) Triamcinolone acetonide (TAA), glycerol/molybdate-containing buffer and unlabeled compounds were added to the wells using a combination of BIOMEK laboratory automation system and repeat pipettes. After four hours of incubation, the samples were precipitated with polyethylene glycol and filtered through Whatman GFIF paper using a TOMTEK cell harvester. The filter mate with 96 samples were bound to a solid-phase scintillant and directly counted in a BETAPLATE counter. […] The activity of test compounds to displace 3(H) TAA binding to hGR is also expressed as percent inhibition at 1 μM.

SMILES	hGR, value given as % (% inhibition) [%]
COc1ccccc1CC(=O)NCC(c1ccccc1)C(c1ccccc1)c1ccccc1 (stereo not drawn) [Compound 5]	62
COc1ccccc1NC(=O)NCC(c1ccccc1)C(c1ccccc1)c1ccccc1 (stereo not drawn) [Compound 51]	32
COc1ccccc1CC(=O)NCC(c1ccccc1)C1c2ccccc2-c2ccccc21 (stereo not drawn) [Compound 67]	23
O=C(Cc1ccccc1Cl)NCC(c1ccccc1)C1c2ccccc2-c2ccccc21 (stereo not drawn) [Compound 68]	46
O=C(Cc1ccccc1C(F)(F)F)NCC(c1ccccc1)C1c2ccccc2-c2ccccc21 (stereo not drawn) [Compound 69]	15
COc1ccccc1CCC(=O)NCC(c1ccccc1)C1c2ccccc2-c2ccccc21 (stereo not drawn) [Compound 70]	53
Cc1ccc(C(=O)NCC(c2ccccc2)C2c3ccccc3-c3ccccc32)s1 (stereo not drawn) [Compound 72, N-(2-carbonyl-5-methylthiophene)-2-(9H-fluoreny-9-yl)-2-phenylethylamine]	33
CC(C)CC(=O)NCC1(c2ccccc2)CC1(c1ccccc1)c1ccccc1 (stereo not drawn) [Compound 85]	68

Other lines, results leading:

hGR, value given as % (% inhibition) [%]	SMILES
11	O=C(NCC1(c2ccccc2)CC1(c1ccccc1)c1ccccc1)Nc1ccccc1F (stereo not drawn) [Compound 93]
13	COc1ccccc1NC(=O)NCC1(c2ccccc2)CC1(c1ccccc1)c1ccccc1 (stereo not drawn) [Compound 94]
4	O=C(NCc1ccccc1)NCC1(c2ccccc2)CC1(c1ccccc1)c1ccccc1 (stereo not drawn) [Compound 95]

The compounds below were run on human progesterone receptor (hPR) (assay: human progesterone receptor binding assay (displacement of 3H R5020 promegestone)). Conditions: not given.
Procedure: A human progesterone receptor binding assay was performed in order to determine selectivity of the compounds, as follows. Human progesterone receptors were prepared from either insect cells (SF21) infected with baculovirus hPR A, or from a breast cancer cell line, T47D, which expresses high levels of endogenous hPR. The receptor binding reactions, with or without test compounds, were set up in 96-well microtiter plates which were previously siliconized with SIGMACOTE. The binding components, 3(H) R5020 Promegestone, a high affinity ligand for the progesterone receptors, glycerollmolybdate-containing buffer and unlabeled compounds were added to the wells using a combination of BIOMEK laboratory automation system and repeat pipettes. After overnight incubation, the samples were precipitated with polyethylene glycol and filtered through Whatman GF/F paper using a TOMTEK cell harvester. The filter mate with 96 samples were bound to a solid-phase scintillant and directly counted in the BETAPLATE counter. Only those compounds that were active in the human glucocorticoid receptor assay set forth in Example 30 were used for progesterone receptor binding to determine cross-reactivity profiles, if any. The activity of test compounds to displace 3(H) R5020 binding to hPR is expressed as percent inhibition at the two concentrations, 10^−6 and 10^−5 Molar.

hPR % inh 10 μM [%]	SMILES
57	Cc1ccc(C(=O)NCC(c2ccc(I)cc2)C(c2ccccc2)c2ccccc2)s1 (stereo not drawn) [Compound 180]
41	COc1ccccc1C(=O)NCC(c1ccc(I)cc1)C(c1ccccc1)c1ccccc1 (stereo not drawn) [Compound 181]
15	COc1cccc(C(=O)NCC(c2ccc(I)cc2)C(c2ccccc2)c2ccccc2)c1 (stereo not drawn) [Compound 182]
42	COc1cc(OC)cc(C(=O)NCC(c2ccc(I)cc2)C(c2ccccc2)c2ccccc2)c1 (stereo not drawn) [Compound 183]
